The test has as its system colorectal cancer organoid PDX models. The experiment in a line: culture-based viability inhibition assay, colorectal cancer organoid PDX models. Type of test: cell-based. Conditions: for Sensitive to Compound 1 (models sensitive/tested): sensitive = IC50<1 μM. Here is the method:
A panel of 13 colorectal cancer PDX models and 6 colorectal cancer organoid PDX models were tested for their sensitivity to Compound 1 in culture-based viability inhibition assays. The MSI-H status of the studied colorectal cancer cell lines and their respective mutations of the MMR path genes are shown in FIG. 19.

The mark [1] stands for this setting: MSS (Organoid) colorectal cancer models.

pIC50: −log10 of the molar value. “And” between values parts separate entries of the source, which are not always exact repeats. Identical values can stand only once. Like-named read-outs stand apart in the source and are kept apart here. Some results are limits rather than exact numbers.

This is an account of results in patent US20250025451A1, “TREATMENT OF CANCER WITH KDM4 INHIBITORS” (Celgene Corporation, priority 2021, published 2025).

For `CC(C)c1ccc(N(C)c2ccc3c(c2)OCC[C@H]3CNc2cnccc2C(=O)O)cc1` [Compound 1, 3-({[(4R)-7-{methyl[4-(propan-2-yl)phenyl]amino}-3,4-dihydro-2H-1-benzopyran-4-yl]methyl}amino)pyridine-4-carboxylic acid], the pIC50 (MSI (Organoid) colorectal cancer models, read-out: IC50 (range over sensitive models)) was 6.83 to 7.66 and the pIC50 (MSS (Organoid) colorectal cancer models, read-out: IC50) is < 5.00. In addition, the “Sensitive to Compound 1 (models sensitive/tested)” value is 3 out of 3 and 3/3 (MSI (Organoid) colorectal cancer models); 0 out of 3 and 0/3 under setting [1]. The “Sensitive to Compound 1 (percent of models)” value under setting [1] is “(0%)”.

For orientation: pIC50 means the negative decadic logarithm of the IC50, by convention in mol/L.
